Experimental data from US10287267B2, “Isoquinolin-3-yl carboxamides and preparation and use thereof” (Samumed, LLC, priority 2016, dated 2019).
Where two headings read alike, the source gives them in different places.

Key:
recombinant GSK3β kinase = recombinant GSK3β kinase (Homo sapiens (Human), UniProt P49841); test: GSK3β kinase assay (Ser/Thr 09 peptide Z-lyte FRET); assay type: biochemical; conditions: 46 μM ATP, 1 h room temperature;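 further: kinase activity read as coumarin to fluorescein emission ratio, 11-point threefold dilutions from 10 µM to 0.0003 µM in duplicate, unphosphorylated and phosphorylated peptide as 0% and 100% controls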
Sequence of recombinant GSK3β kinase (P49841 whole entry): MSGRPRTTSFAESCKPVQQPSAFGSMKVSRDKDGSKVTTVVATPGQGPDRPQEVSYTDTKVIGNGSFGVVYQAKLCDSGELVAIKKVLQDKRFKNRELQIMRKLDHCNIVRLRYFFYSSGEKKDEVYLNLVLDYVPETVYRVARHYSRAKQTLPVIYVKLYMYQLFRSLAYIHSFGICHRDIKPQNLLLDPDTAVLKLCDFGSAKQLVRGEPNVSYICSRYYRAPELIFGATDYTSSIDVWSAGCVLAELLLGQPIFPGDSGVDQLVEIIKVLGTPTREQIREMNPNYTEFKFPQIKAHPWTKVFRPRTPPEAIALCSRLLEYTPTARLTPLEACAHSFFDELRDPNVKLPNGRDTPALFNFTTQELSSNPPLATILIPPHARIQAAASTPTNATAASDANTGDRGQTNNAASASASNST

[1] = system: Wnt pathway (Sp5-Luc reporter, TCF/LEF binding sites) in SW480 colon carcinoma cells; test: Screening assay for Wnt activity: Sp5-Luc reporter gene assay; assay type: cell-based, human; conditions: Homo sapiens; for EC50: Sp5-Luc reporter, SW480 cells, 36 to 48 hours; for inhibition at 10 µM: SW480, read-out: percent inhibition at 10 μM;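 on all read-outs here: firefly luciferase luminescence read in stably transduced SW480 cells carrying the Sp5 promoter reporter with eight TCF/LEF sites, compounds given in 0.1% DMSO final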
Protocol: The screening assay for Wnt activity is described as follows.
Following incubation, 15 μl of BriteLite Plus luminescence reagent (Perkin Elmer) was added to each well of the 384-well assay plates. The plates were placed on an orbital shaker for 2 min and then luminescence was quantified using the Envision (Perkin Elmer) plate reader.

[2] = system: α-smooth muscle actin (αSMA) positive LL29 cells; test: Inhibition of fibrotic process: αSMA in TGF-β1 treated primary human fibroblasts from IPF patients; assay type: cell-based; conditions: Homo sapiens, Fibroblast; for EC50: 96 h, Table 8, LL29 fibroblasts from IPF patients, TGF-β1 20 ng/mL, 4 days, dose-response 10 μM to 0.94 nM; for inhibition at 10 µM: read-out: percent value in parentheses beside EC50 >10 μM;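 on all read-outs here: controls were TGF-β1 stimulated wells with DMSO vehicle (positive) and cells given DMSO alone (negative), cultured in F12 medium with 1% fetal bovine serum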
IL-6 = IL-6 inhibition in LPS-stimulated human peripheral blood mononuclear cells (HTRF); assay type: cell-based; conditions: Homo sapiens, PBMC; for EC50: Table 9, huPBMCs, LPS 50 ng/mL, 22 hours, dose-response starting from 10 μM; for inhibition at 10 µM: read-out: percent value in parentheses beside EC50 >10 μM;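 on all read-outs here: IL-6 detected by HTRF with an XL665- and Cryptate-labelled anti-IL-6 antibody pair, samples run in duplicate, EC50 obtained from a four-parameter Levenberg-Marquardt curve fit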
Protocol: After 22 hour incubation, a mixture of anti-IL6 XL665 and anti-IL-6 Cryptate diluted in reconstitution buffer (Catalog #62IL6PEC, Cisbio Inc., Bedford, Mass.) was added to each well. […] All samples were processed in duplicate. […] EC50 was determined using software generated by Dotmatics Limited (Windhill Bishops Stortford Herts, UK) using the Levenberg-Marquardt 4 parameter fitting procedure with finite different gradients.

[3] = target: recombinant DYRK1A kinase (Homo sapiens (Human), UniProt Q13627); test: DYRK1A kinase assay (Ser/Thr 18 peptide Z-lyte FRET); assay type: biochemical; conditions: 30 μM ATP, 1 h room temperature;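 further: Read-out is the coumarin to fluorescein emission ratio, referenced to unphosphorylated (0%) and phosphorylated (100%) Ser/Thr 18 peptide controls, values from dose-response curves by non-linear regression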
[4] = system: Tau phosphorylation at Ser396 (pSer396); test: Tau phosphorylation assay (pSer396 ELISA / western blot) in SH-SY5Y cells; assay type: cell-based, human; conditions: Homo sapiens, read-out: pSer396 Tau EC50;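 further: EC50 for reduction of Tau pSer396 in lysed cells, measured by colorimetric ELISA or chemiluminescent western blot, both using the same pSer396 antibody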
[5] = system: SW480 colon carcinoma cells; test: Cell viability assay (CellTiter-Glo); assay type: cell-based, human; conditions: Homo sapiens; for EC50: 96 h, SW480 cells, CellTiter-Glo, four days incubation; for inhibition at 10 µM: SW480, read-out: percent inhibition at 10 μM
[6] = SH-SY5Y cells, overnight (16-18 h) exposure

Structure (SMILES) | EC50 (recombinant GSK3β kinase) [nM] | EC50 [1] [nM] | EC50 [2] [nM] | EC50 (IL-6) [nM] | EC50 [3] [nM] | EC50 [4, 6] [nM] | EC50 [5] [nM] | inhibition at 10 µM [2] [%] | inhibition at 10 µM (IL-6) [%] | inhibition at 10 µM [5] [%] | EC50 ([4]; SH-SY5Y) [nM] | inhibition at 10 µM [1] [%]
Cc1ncc(-c2ccc3cnc(NC(=O)C4CCC(F)(F)CC4)cc3c2)n1C [Compound 121, N-(6-(1,2-Dimethyl-1H-imidazol-5-yl)isoquinolin-3-yl)-4,4-difluorocyclohexanecarboxamide] | 53 | 3500 | 1080 | 3650 | 3.4 | 1030 | 4310 | – | – | – | – | –
Cc1ncc(-c2ccc3cnc(NC(=O)[C@@H]4CCCO4)cc3c2)n1C [Compound 188, (S)—N-(6-(1,2-Dimethyl-1H-imidazol-5-yl)isoquinolin-3-yl)tetrahydrofuran-2-carboxamide] | 265 | > 10000 | > 10000 | 9980 | 28.6 | 4220 | > 10000 | 12.4 | – | – | – | –
CN1CCC(C(=O)Nc2cc3cc(-c4ccn(C)n4)ccc3cn2)CC1 [Compound 264, 1-Methyl-N-(6-(1-methyl-1H-pyrazol-3-yl)isoquinolin-3-yl)piperidine-4-carboxamide] | > 10000 | > 10000 | > 10000 | > 10000 | 348 | > 10000 | 8750 | 11.7 | 4 | – | – | –
O=C(Nc1cc2cc(-c3cnc4n3CCNC4)ccc2cn1)C1CC1 [Compound 265, N-(6-(5,6,7,8-Tetrahydroimidazo[1,2-a]pyrazin-3-yl)isoquinolin-3-yl) cyclopropanecarboxamide] | 7 | 1240 | 2560 | 3000 | 3.7 | 656 | 4350 | – | – | – | – | –
CN1CCn2c(-c3ccc4cnc(NC(=O)C5CC5)cc4c3)cnc2C1 [Compound 266, N-(6-(7-Methyl-5,6,7,8-tetrahydroimidazo[1,2-a]pyrazin-3-yl)isoquinolin-3-yl)cyclopropanecarboxamide] | 38 | 2440 | 697 | 1930 | 17.4 | 1200 | 6320 | – | – | – | – | –
CN1CCn2ncc(-c3ccc4cnc(NC(=O)C5CC(F)(F)C5)cc4c3)c2C1 [Compound 267, 3,3-Difluoro-N-(6-(5-methyl-4,5,6,7-tetrahydropyrazolo[1,5-a]pyrazin-3-yl)isoquinolin-3-yl)cyclobutanecarboxamide] | 39 | 1380 | 590 | 9410 | 29.4 | 555 | 2020 | – | – | – | – | –
Cc1ncc(-c2ccc3cnc(NC(=O)C4CC(F)(F)C4)cc3c2)n1C [Compound 268, N-(6-(1,2-Dimethyl-1H-imidazol-5-yl)isoquinolin-3-yl)-3,3-difluorocyclobutanecarboxamide] | 17 | 2070 | 73 | 8170 | 5.8 | 478 | 2770 | – | – | – | – | –
Cn1nccc1-c1ccc2cnc(NC(=O)C3CCN(CCC(F)(F)F)CC3)cc2c1 [Compound 270, N-(6-(1-Methyl-1H-pyrazol-5-yl)isoquinolin-3-yl)-1-(3,3,3-trifluoropropyl) piperidine-4-carboxamide] | 5310 | > 10000 | > 10000 | 9980 | 952 | > 10000 | > 10000 | 11.4 | – | – | – | –
CC(C)CN1CCN(CC(=O)Nc2cc3cc(-c4cnn(C)c4)ccc3cn2)CC1 [Compound 272, 2-(4-Isobutylpiperazin-1-yl)-N-[6-(1-methylpyrazol-4-yl)-3-isoquinolyl]acetamide] | 105 | 3750 | 2540 | 3100 | 14 | 1660 | 5870 | – | – | – | – | –
Cn1cc(-c2ccc3cnc(NC(=O)CN4CC(C)(C)C4)cc3c2)cn1 [Compound 273, 2-(3,3-Dimethylazetidin-1-yl)-N-[6-(1-methylpyrazol-4-yl)-3-isoquinolyl]acetamide] | 48 | 1510 | 515 | 842 | 10.7 | 492 | 1180 | – | – | – | – | –
Cn1cc(-c2ccc3cnc(NC(=O)CN4CC[C@@H](F)C4)cc3c2)cn1 [Compound 274, 2-[(3R)-3-fluoropyrrolidin-1-yl]-N-[6-(1-methylpyrazol-4-yl)-3-isoquinolyl]acetamide] | 25 | 3720 | 195 | 3220 | 5.9 | 535 | 4050 | – | – | – | – | –
Cn1cncc1-c1ccc2cnc(NC(=O)CN3CCCCC3)cc2c1 [Compound 275, N-[6-(3-methylimidazol-4-yl)-3-isoquinolyl]-2-(1-piperidyl) acetamide] | 115 | 1920 | 431 | 1140 | 4.7 | 232 | 1280 | – | – | – | – | –
Cn1cc(-c2ccc3cnc(NC(=O)CN4CCCCC4)cc3c2)nn1 [Compound 276, N-(6-(1-methyl-1H-1,2,3-triazol-4-yl)isoquinolin-3-yl)-2-(piperidin-1-yl) acetamide] | 6 | 5180 | 336 | 2920 | 5.1 | 150 | > 10000 | – | – | 29.6 | – | –
Cn1cc(-c2ccc3cnc(NC(=O)C4C(C)(C)C4(C)C)cc3c2)nn1 [Compound 277, 2,2,3,3-Tetramethyl-N-(6-(1-methyl-1H-1,2,3-triazol-4-yl)isoquinolin-3-yl) cyclopropane-1-carboxamide] | 104 | 5260 | 245 | > 10000 | 2.3 | – | 1400 | – | 4 | – | 1080 | –
Cc1nnc(-c2ccc3cnc(NC(=O)C4CCN(CCC(F)(F)F)CC4)cc3c2)n1C [Compound 279, N-(6-(4,5-Dimethyl-4H-1,2,4-triazol-3-yl)isoquinolin-3-yl)-1-(3,3,3-trifluoropropyl)piperidine-4-carboxamide] | 14 | 5650 | 1200 | > 10000 | 7.8 | 498 | > 10000 | – | 14.2 | 52.4 | – | –
CC(C)CN1CCC(F)(C(=O)Nc2cc3cc(-c4nncn4C)ccc3cn2)CC1 [Compound 280, 4-Fluoro-1-isobutyl-N-(6-(4-methyl-4H-1,2,4-triazol-3-yl)isoquinolin-3-yl) piperidine-4-carboxamide] | 185 | 2320 | 909 | > 10000 | 10.8 | 677 | 9570 | – | 11.6 | – | – | –
CC(C)CN1CCC(F)(C(=O)Nc2cc3cc(-c4cn(C)nn4)ccc3cn2)CC1 [Compound 281, 4-Fluoro-1-isobutyl-N-(6-(1-methyl-1H-1,2,3-triazol-4-yl)isoquinolin-3-yl) piperidine-4-carboxamide] | 71 | > 10000 | 486 | > 10000 | 8.1 | 518 | > 10000 | – | 0 | – | – | 47
CCN1CCC(F)(C(=O)Nc2cc3cc(-c4cn(C)nn4)ccc3cn2)CC1 [Compound 282, 1-Ethyl-4-fluoro-N-(6-(1-methyl-1H-1,2,3-triazol-4-yl)isoquinolin-3-yl) piperidine-4-carboxamide] | 134 | > 10000 | 1940 | > 10000 | 11.5 | 973 | 6610 | – | 2.4 | – | – | 49.3
O=C(Nc1cc2cc(-c3cnn4c3CN(CCF)CC4)ccc2cn1)C1CCC(F)(F)CC1 [Compound 283, 4,4-Difluoro-N-(6-(5-(2-fluoroethyl)-4,5,6,7-tetrahydropyrazolo[1,5-a]pyrazin-3-yl)isoquinolin-3-yl)cyclohexane-1-carboxamide] | 62 | 2490 | 782 | 5450 | 7 | 411 | 3120 | – | – | – | – | –
Cn1cc(-c2ccc3cnc(NC(=O)CN4CCCC4)cc3c2)cn1 [Compound 284, N-(6-(1-Methyl-1H-pyrazol-4-yl)isoquinolin-3-yl)-2-(pyrrolidin-1-yl) acetamide] | 37 | 1870 | 2340 | 1180 | 7.1 | 359 | 2670 | – | – | – | – | –
CCn1cc(-c2ccc3cnc(NC(=O)CN4CCCC4)cc3c2)cn1 [Compound 285, N-(6-(1-Ethyl-1H-pyrazol-4-yl)isoquinolin-3-yl)-2-(pyrrolidin-1-yl) acetamide] | 149 | 3400 | 1470 | 2270 | 44.2 | 1580 | 7020 | – | – | – | – | –
